Data: patent US3985790A, “Phenoxyalkane carboxylic acid derivative” (priority 1974, dated 1976)
Read-outs that look alike come from different tables or passages of the source.

Experiments:
[1] = test system: serum cholesterol and serum triglyceride levels; experiment: Antilipemic effect in young male rats, fatty diet 2 (high cholesterol-high fat), 14 days oral; assay type: in vivo, SPF-Wistar rats; conditions: fatty diet 2, 250 mg/kg oral
Description: In these tests the compound in a vehicle was supplied orally for a period of 14 days. Twenty-four hours after the last dose blood analyses were made for determining the serum cholesterol and serum triglyceride levels. In a second series young male rats of 80-90 grams weight were fed a fat and cholesterol-rich diet (fatty diet 2). The statistical significance (p) of the results is also given.

[2] = test system: serum cholesterol and serum triglyceride levels; assay type: in vivo, SPF-Wistar rats; conditions: 14 days
Description: (§1) The therapeutic effectiveness of the salt of this invention ("clofibrinate") was compared with that of the fundamental parent substance, namely the 4-(p-chlorophenoxyacetylamino)-benzoic acid diethylaminoethyl ester, as well as clofibrate, that is the ethyl ester of clofibrinic acid, using SPF-Wistar rats. In these tests the compound in a vehicle was supplied orally for a period of 14 days. Twenty-four hours after the last dose blood analyses were made for determining the serum cholesterol and serum triglyceride levels.
In a first series of experiments, the effectiveness was studied in rats having normal blood lipid levels which were made hyperlipemic by means of a special fatty diet 1. This cholesterol-rich fatty diet 1 corresponded to that of Berger et al., Proc. Soc. Ex. Biol. (1969) 132,293.

[3] = test system: blood serum cholesterol and lipid levels; experiment: Effect on blood serum cholesterol and lipid levels, tolerability and toxicity, general statements; assay type: in vivo, SPF-Wistar rats; conditions: hyperlipemic conditions
Description: as §1
In a first series of experiments, the effectiveness was studied in rats having normal blood lipid levels which were made hyperlipemic by means of a special fatty diet 1. This cholesterol-rich fatty diet 1 corresponded to that of Berger et al., Proc. Soc.
In a second series young male rats of 80-90 grams weight were fed a fat and cholesterol-rich diet (fatty diet 2). The statistical significance (p) of the results is also given.

Acute toxicity (LD50) = conditions: mouse, in vivo
human lipid metabolism = conditions: French Pat. No. 1,552,793; cited from earlier work
[4] = fatty diet 1, 1000 mg/kg oral, 3 of 10 animals died

SMILES | Decrease of triglycerides [1] | Final Value Cholest. [1] | Final Value Triglycerides [1] | Decrease of cholesterol ([2]; fatty diet 1, 250 mg/kg oral) | Decrease of triglycerides ([2]; fatty diet 1, 250 mg/kg oral) | Final Value Cholest. ([2]; fatty diet 1, 250 mg/kg oral) | Final Value Triglycerides ([2]; fatty diet 1, 250 mg/kg oral) | Decrease of cholesterol [2, 4] | Final Value Cholest. [2, 4] | Final Value Triglycerides [2, 4] | effectiveness against elevated cholesterol and elevated triglyceride levels [3] | LD50 (Acute toxicity (LD50)) | influence on human lipid metabolism (human lipid metabolism) | Decrease of cholesterol ([2]; fatty diet 1, 100 mg/kg oral) | Final Value Cholest. ([2]; fatty diet 1, 100 mg/kg oral) | Final Value Triglycerides ([2]; fatty diet 1, 100 mg/kg oral)
CCOC(=O)C(C)(C)Oc1ccc(Cl)cc1 [Clofibrate, ethyl-2-(p-chlorophenoxy)-isobutyrate] | 20.6% | 133.3 mg % | 107.7 | 3.0% | 12.5% | 347.9 mg% | 75.6 | 31.6% | 245.4 mg% | 120.3 | only slightly effective under hyperlipemic conditions or even fails completely | 1150 mg/kg | – | – | – | –
CCN(CC)CCOC(=O)c1ccc(NC(=O)COc2ccc(Cl)cc2)cc1 [Parent Compound, 4-(p-chlorophenoxyacetylamino)-benzoic acid diethylaminoethyl ester] | – | – | – | 24.9% | – | 269.4 mg% | 101.6 | – | – | – | – | – | have an influence on human lipid metabolism | 7.8% | 330.6 mg% | 114.9
